One assay concerns MOLM-13 cells. The experiment in a line: Cell viability assay (CellTiter-Glo) in MOLM-13 cells, alone or with gilteritinib. The format is cell-based. Particulars: Homo sapiens, MOLM-13 cells, three days, CellTiter-Glo. Background: In ATP-based viability assays light output follows the ATP content of the culture.
In another assay the test system is MV4;11 cells. Description: Cell viability assay (CellTiter-Glo) in MV4;11 cells, alone or with gilteritinib. The format is cell-based. Particulars: Homo sapiens, MV4;11 cells, three days, CellTiter-Glo, read-out: MV4.
The mark [1] stands for this setting: MOLM-13, 72 h, compound alone (without gilteritinib), read-out: MOLM-13 IC50.
Where [2] appears, read: MOLM-13, 72 h, with gilteritinib 20 nM, read-out: MOLM-13 IC50 gilteritinib.
[3] abbreviates: MV4-11, 72 h, compound alone (without gilteritinib), 11 IC50.
The mark [4] stands for this setting: MV4-11, 72 h, with gilteritinib 10 nM, 11 IC50 gilteritinib.
Where [5] appears, read: 72 h, compound alone (without gilteritinib), read-out: MOLM-13 IC50.
Where [6] appears, read: 72 h, with gilteritinib 20 nM, read-out: MOLM-13 IC50 gilteritinib.
The mark [7] stands for this setting: 72 h, compound alone (without gilteritinib), 11 IC50.
Where [8] appears, read: 72 h, with gilteritinib 10 nM, 11 IC50 gilteritinib.

Where two headings read alike, the source gives them in different places. Where only a bound is given, the exact number is not on record here.

`O=C1CCC(N2Cc3ccc(CCCCCC(=O)N4CCC(n5cc(-c6cnc7ccccc7n6)cn5)CC4)cc3C2=O)C(=O)N1` (centres unmarked) [GS-101, 3-(1-Oxo-6-(6-oxo-6-(4-(4-(quinoxalin-2-yl)-1H-pyrazol-1-yl)piperidin-1-yl)hexyl)isoindolin-2-yl)piperidine-2,6-dione]: the IC50 in the assay on MOLM-13 cells (setting [1]) is 0.01 to 0.1 µM; with MOLM-13 cells (setting [2]), < 0.01 µM; in the assay with MV4;11 cells (setting [3]) it was < 0.01 µM; in the assay on MV4;11 cells (setting [4]), < 0.01 µM.

As for `O=C1CCC(N2Cc3ccc(CCCCCC(=O)N4CCC(n5cc(-c6ccc7ccccc7n6)cn5)CC4)cc3C2=O)C(=O)N1` (centres unmarked) [GS-102, 3-(1-Oxo-6-(6-oxo-6-(4-(4-(quinolin-2-yl)-1H-pyrazol-1-yl)piperidin-1-yl)hexyl)isoindolin-2-yl)piperidine-2,6-dione], the IC50 is 0.1 to 1 µM in the assay with MOLM-13 cells (setting [1]), 0.01 to 0.1 µM in the assay on MOLM-13 cells (setting [2]), 0.01 to 0.1 µM in the assay on MV4;11 cells (setting [3]) and < 0.01 µM in the assay with MV4;11 cells (setting [4]).

In the case of `O=C1CCC(N2Cc3ccc(CCCCCC(=O)N4CCN(c5ccccn5)CC4)cc3C2=O)C(=O)N1` (centres unmarked) [GS-103, 3-(1-Oxo-6-(6-oxo-6-(4-(pyridin-2-yl)piperazin-1-yl)hexyl)isoindolin-2-yl)piperidine-2,6-dione], the IC50 with MOLM-13 cells (setting [5]) was > 1 µM; in the assay with MOLM-13 cells (setting [6]) it was 0.1 to 1 µM; with MV4;11 cells (setting [7]) it was > 1 µM; in the assay on MV4;11 cells (setting [8]) it was 0.1 to 1 µM.

`O=C1CCC(N2Cc3ccc(CCCCCC(=O)N4CCC(c5ccccn5)CC4)cc3C2=O)C(=O)N1` (centres unmarked) [GS-104, 3-(1-Oxo-6-(6-oxo-6-(4-(pyridin-2-yl)piperidin-1-yl)hexyl)isoindolin-2-yl)piperidine-2,6-dione]: the IC50 in the assay on MOLM-13 cells (setting [1]) was > 1 µM; in the assay on MOLM-13 cells (setting [2]) it was 0.1 to 1 µM; with MV4;11 cells (setting [3]), 0.1 to 1 µM; in the assay on MV4;11 cells (setting [4]), 0.1 to 1 µM.

Regarding `O=C1CCC(N2Cc3ccc(CCCCCCCn4cc(-c5cnc6ccccc6n5)cn4)cc3C2=O)C(=O)N1` (centres unmarked) [GS-105, 3-(1-Oxo-6-(7-(4-(quinoxalin-2-yl)-1H-pyrazol-1-yl)heptyl)isoindolin-2-yl)piperidine-2,6-dione], the IC50 with MOLM-13 cells (setting [1]) is 0.01 to 0.1 µM; in the assay on MOLM-13 cells (setting [2]), < 0.01 µM; in the assay on MV4;11 cells (setting [3]), 0.01 to 0.1 µM; in the assay on MV4;11 cells (setting [4]) it was 0.01 to 0.1 µM.

Take `O=C1CCC(N2Cc3ccc(CCCCCCn4cc(-c5cnc6ccccc6n5)cn4)cc3C2=O)C(=O)N1` (centres unmarked) [GS-106, 3-(1-Oxo-6-(6-(4-(quinoxalin-2-yl)-1H-pyrazol-1-yl)hexyl)isoindolin-2-yl)piperidine-2,6-dione]: the IC50 in the assay with MOLM-13 cells (setting [1]) was > 1 µM; in the assay with MOLM-13 cells (setting [2]), 0.01 to 0.1 µM; in the assay with MV4;11 cells (setting [3]), 0.1 to 1 µM; with MV4;11 cells (setting [4]) it was 0.01 to 0.1 µM.

For `O=C1CCC(N2C(=O)c3ccc(NCCCC4CC(n5cc(-c6cnc7ccccc7n6)cn5)C4)cc3C2=O)C(=O)N1` (centres unmarked) [GS-107, 2-(2,6-Dioxopiperidin-3-yl)-5-((3-(3-(4-(quinoxalin-2-yl)-1H-pyrazol-1-yl)cyclobutyl)propyl)amino)isoindoline-1,3-dione], the IC50 with MOLM-13 cells (setting [1]) is > 1 µM; in the assay with MOLM-13 cells (setting [2]), 0.01 to 0.1 µM; with MV4;11 cells (setting [3]), 0.1 to 1 µM; in the assay on MV4;11 cells (setting [4]), 0.01 to 0.1 µM.

`O=C1CCC(N2Cc3c(OCc4ccc(CN5CCC(n6cc(-c7cnc8ccccc8n7)cn6)CC5)cc4)cccc3C2=O)C(=O)N1` (centres unmarked) [GS-108, 3-(1-Oxo-4-((4-((4-(4-(quinoxalin-2-yl)-1H-pyrazol-1-yl)piperidin-1-yl)methyl)benzyl)oxy)isoindolin-2-yl)piperidine-2,6-dione]: the IC50 with MOLM-13 cells (setting [1]) was > 1 µM; in the assay with MOLM-13 cells (setting [2]) it was 0.01 to 0.1 µM; in the assay with MV4;11 cells (setting [3]), > 1 µM; in the assay with MV4;11 cells (setting [4]), 0.1 to 1 µM.

`O=C(CC1CC1n1cc(-c2cnc3ccccc3n2)cn1)NCc1ccc2c(c1)CN(C1CCC(=O)NC1=O)C2=O` (centres unmarked) [GS-109, N-((2-(2,6-Dioxopiperidin-3-yl)-1-oxoisoindolin-5-yl)methyl)-2-(2-(4-(quinoxalin-2-yl)-1H-pyrazol-1-yl)cyclopropyl)acetamide]: the IC50 is > 1 µM with MOLM-13 cells (setting [1]), 0.1 to 1 µM in the assay with MOLM-13 cells (setting [2]), 0.1 to 1 µM in the assay with MV4;11 cells (setting [3]) and 0.1 to 1 µM in the assay on MV4;11 cells (setting [4]).

`O=C1CCC(N2Cc3c(NC4CCCC(Nc5cccc(N6CCC(n7cc(-c8cnc9ccccc9n8)cn7)CC6)c5)C4)cccc3C2=O)C(=O)N1` (centres unmarked) [GS-110, 3-(1-Oxo-4-((3-((3-(4-(4-(quinoxalin-2-yl)-1H-pyrazol-1-yl)piperidin-1-yl)phenyl)amino)cyclohexyl)amino)isoindolin-2-yl)piperidine-2,6-dione]: the IC50 was 0.01 to 0.1 µM in the assay on MOLM-13 cells (setting [1]), < 0.01 µM in the assay with MOLM-13 cells (setting [2]), < 0.01 µM with MV4;11 cells (setting [3]) and < 0.01 µM with MV4;11 cells (setting [4]).

Turning to `O=C1CCC(N2Cc3ccc(CCCCCCC(=O)N4CCC(c5ccccn5)CC4)cc3C2=O)C(=O)N1` (centres unmarked) [GS-111, 3-(1-Oxo-6-(7-oxo-7-(4-(pyridin-2-yl)piperidin-1-yl)heptyl)isoindolin-2-yl)piperidine-2,6-dione], the IC50 in the assay with MOLM-13 cells (setting [1]) was > 1 µM; in the assay on MOLM-13 cells (setting [2]) it was 0.1 to 1 µM; in the assay with MV4;11 cells (setting [3]), 0.1 to 1 µM; with MV4;11 cells (setting [4]), 0.01 to 0.1 µM.

For the molecule `O=C1CCC(N2C(=O)c3ccc(NCCCC4CCCC(n5cc(-c6cnc7ccccc7n6)cn5)C4)cc3C2=O)C(=O)N1` (centres unmarked) [GS-112, 2-(2,6-Dioxopiperidin-3-yl)-5-((3-(3-(4-(quinoxalin-2-yl)-1H-pyrazol-1-yl)cyclohexyl)propyl)amino)isoindoline-1,3-dione], the IC50 is > 1 µM in the assay with MOLM-13 cells (setting [1]), 0.1 to 1 µM with MOLM-13 cells (setting [2]), > 1 µM with MV4;11 cells (setting [3]) and 0.1 to 1 µM in the assay with MV4;11 cells (setting [4]).

Regarding `O=C1CCC(N2Cc3ccc(CCCCCC(=O)N4CCC(c5cccc(Cl)c5)CC4)cc3C2=O)C(=O)N1` (centres unmarked) [GS-113, 3-(6-(6-(4-(3-Chlorophenyl)piperidin-1-yl)-6-oxohexyl)-1-oxoisoindolin-2-yl)piperidine-2,6-dione], the IC50 in the assay on MOLM-13 cells (setting [1]) is > 1 µM; in the assay with MOLM-13 cells (setting [2]), 0.01 to 0.1 µM; in the assay with MV4;11 cells (setting [3]) it was 0.01 to 0.1 µM; with MV4;11 cells (setting [4]), < 0.01 µM.

On to `O=C1CCC(N2Cc3ccc(CCCCCC(=O)N4CCC(c5ccc(Cl)cc5)CC4)cc3C2=O)C(=O)N1` (centres unmarked) [GS-114, 3-(6-(6-(4-(4-Chlorophenyl)piperidin-1-yl)-6-oxohexyl)-1-oxoisoindolin-2-yl)piperidine-2,6-dione], for which the IC50 with MOLM-13 cells (setting [5]) lay within 0.1 to 1 µM; with MOLM-13 cells (setting [6]), 0.01 to 0.1 µM; in the assay with MV4;11 cells (setting [7]), 0.1 to 1 µM; in the assay on MV4;11 cells (setting [8]), 0.01 to 0.1 µM.

With `O=C1CCC(N2Cc3ccc(CCCCCCC(=O)N4CCC(c5cccc(Cl)c5)CC4)cc3C2=O)C(=O)N1` (centres unmarked) [GS-115, 3-(6-(7-(4-(3-Chlorophenyl)piperidin-1-yl)-7-oxoheptyl)-1-oxoisoindolin-2-yl)piperidine-2,6-dione], the IC50 with MOLM-13 cells (setting [1]) is 0.01 to 0.1 µM; with MOLM-13 cells (setting [2]), < 0.01 µM; in the assay on MV4;11 cells (setting [3]), 0.1 to 1 µM; in the assay on MV4;11 cells (setting [4]), 0.01 to 0.1 µM.

Regarding `O=C1CCC(N2Cc3ccc(CCCCCCC(=O)N4CCC(c5ccc(Cl)cc5)CC4)cc3C2=O)C(=O)N1` (centres unmarked) [GS-116, 3-(6-(7-(4-(4-Chlorophenyl)piperidin-1-yl)-7-oxoheptyl)-1-oxoisoindolin-2-yl)piperidine-2,6-dione], the IC50 in the assay on MOLM-13 cells (setting [5]) was 0.1 to 1 µM; in the assay with MOLM-13 cells (setting [6]), < 0.01 µM; with MV4;11 cells (setting [7]) it was 0.01 to 0.1 µM; with MV4;11 cells (setting [8]), < 0.01 µM.

As for `O=C1CCC(N2C(=O)c3ccc(NCCc4ccc(-n5cc(-c6cnc7ccccc7n6)cn5)cc4)cc3C2=O)C(=O)N1` (centres unmarked) [GS-117, 2-(2,6-Dioxopiperidin-3-yl)-5-((4-(4-(quinoxalin-2-yl)-1H-pyrazol-1-yl)phenethyl)amino)isoindoline-1,3-dione], the IC50 in the assay with MOLM-13 cells (setting [1]) was > 1 µM; in the assay on MOLM-13 cells (setting [2]) it was 0.1 to 1 µM; in the assay on MV4;11 cells (setting [3]), > 1 µM; with MV4;11 cells (setting [4]), 0.1 to 1 µM.

(Values after US20240050428A1 (Cullgen (Shanghai), Inc., priority 2020, published 2024).)
